Data on two molecules can be found in patent US12180173B1, “5-((2-isopropyl-5-methylphenoxy)methyl)-3-(naphthalen-1-yl)-1,2,4-oxadiazole as an anti-cancer and antimicrobial compound” (KING FAISAL UNIVERSITY, priority 2023, dated 2024).

Type in all cases: cell-based
The test system of experiment [1] is Aspergillus flavus. The experiment can be described thus: Agar plate disc-diffusion, inhibition zone. As to the method:
(§1) The agar plate disc-diffusion method was applied. […] The discs were then placed onto the surface of agar plates (nutrient agar for bacteria and Sabouraud's dextrose agar for fungi) seeded with the test organism. Each plate contained 15 mL of the agar medium, previously seeded with 0.2 mL of the broth culture of each organism pregrown for 18 hours. The plates were incubated at 37° C. for 48 h, and 72 h for fungi. The inhibition zones were measured in mm. Discs impregnated with DMSO were used as a control, and its inhibition zone was subtracted from the tested compound actual inhibition zone.

In experiment [2] the test system is Bacillus cereus. Briefly: Agar plate disc-diffusion, inhibition zone. As to the method: as §1
(A growth-free zone around the sample is the usual read-out of agar diffusion tests.)

The subject of experiment [3] is Chrysosporium keratinophilum. Briefly: Agar plate disc-diffusion, inhibition zone. The method, then:
as §1

Experiment [4] relates to Escherichia coli. The experiment can be described thus: Agar plate disc-diffusion, inhibition zone. As to the method:
as §1

In experiment [5] the test system is Pseudomonas aeruginosa. Briefly: Agar plate disc-diffusion, inhibition zone. The method, then:
as §1

Experiment [6] deals with Staphylococcus aureus. The experiment can be described thus: Agar plate disc-diffusion, inhibition zone. The method, then:
as §1

Experiment [7] deals with human osteosarcoma cells (MG-63). Briefly: Cytotoxicity by SRB assay. As to conditions: MG-63 cells, 0.01 μM to 100 μM for 72 h. The source says: (§2) The anticancer activity of the described synthesized compounds against highly aggressive androgen-independent metastatic human prostate cancer cells (PC3) and osteosarcoma (MG-63) cells. The human prostate cancer cells (PC3) and human osteosarcoma cells (MG-63) were obtained from Nawah Scientific Inc. (Mokatam, Cairo, Egypt) and cultured in DMEM (Dulbecco's modified eagle's medium), Gibco, USA, supplemented with fetal bovine serum (FBS) at a concentration of 10% and 100 U/mL of penicillin and streptomycin (PS). The Cells were incubated at 37° C. in a humidified environment that contained 5% CO2.
(§3) Cells were seeded in 96-well plates as aliquots of 100 μL cell suspension and incubated in a complete media for 24 h. afterward, cells were treated with 5-((2-isopropyl-5-methylphenoxy)methyl)-3-(naphthalen-1-yl)-1,2,4-oxadiazole at diverse concentrations ranging from 0.01 μM to 100 μM for 72 h. Then, cells were fixed at 4° C. for one hour with 150 μL of 10% trichloroacetic acid (TCA). […] Then, 150 μL of Tris pH 10.5 (10 mM) was added, and the absorbance was measured at 540 nm using a BMG LABTECH®-FLUOstar Omega microplate reader (Ortenberg, Germany). Half maximal inhibitory concentrations (IC50) values were calculated for each experiment using GraphPad Prism 6 software. […]
(§4) The inhibition was calculated using the following equation: Inhibition %=100−Average Viability

The subject of experiment [8] is human prostate cancer cells (PC3). The experiment can be described thus: Cytotoxicity by SRB assay. As to conditions: 0.01 μM to 100 μM for 72 h.
Excerpt: as §2, §3, §4
In general terms: The SRB assay estimates cell density from bound dye.

The test system of experiment [9] is different microbes. Briefly: Antimicrobial activity, agar plate disc-diffusion (overall statement). As to conditions: against different microbes (bacteria and fungi). As to the method: The agar plate disc-diffusion method was applied. Sterilized filter papers (6 mm in diameter) were wetted with 10 μL of a solution of 5-((2-isopropyl-5-methylphenoxy)methyl)-3-(naphthalen-1-yl)-1,2,4-oxadiazole (3) to be tested, containing 10 mg/mL in DMSO, and the discs were allowed to air dry. The discs were then placed onto the surface of agar plates (nutrient agar for bacteria and Sabouraud's dextrose agar for fungi) seeded with the test organism. Each plate contained 15 mL of the agar medium, previously seeded with 0.2 mL of the broth culture of each organism pregrown for 18 hours. The plates were incubated at 37° C. for 48 h, and 72 h for fungi. The inhibition zones were measured in mm. Discs impregnated with DMSO were used as a control, and its inhibition zone was subtracted from the tested compound actual inhibition zone.

The mark [10] stands for this setting: A = concentration of comp. = 10,000 μL.
[11] abbreviates: B = concentration of comp. = 30,000 μL.
Setting [12] is: C = concentration of comp. = 50,000 μL.

As for `O=C(O)c1cn(C2CC2)c2cc(N3CCNCC3)c(F)cc2c1=O` [Cip., ciprofloxacin, reference compound], the inhibition zone in experiment [1] (setting [10]) is listed as 29 mm; in experiment [1] (setting [11]), 30 mm; in [1] (setting [12]), 42 mm; in experiment [2] (setting [10]), 29 mm; in experiment [2] (setting [11]), 30 mm; in experiment [2] (setting [12]), 42 mm. The inhibition zone in experiment [3] (setting [10]) was determined as 29 mm; in experiment [3] (setting [11]) it was 30 mm; in experiment [3] (setting [12]), 53 mm; in [4] (setting [10]) it was 30 mm; in experiment [4] (setting [11]), 39 mm; in experiment [4] (setting [12]) it was 60 mm. Also, the inhibition zone in [5] (setting [10]) is 29 mm; in experiment [5] (setting [11]), 30 mm; in experiment [5] (setting [12]), 53 mm; in [6] (setting [10]) it was 43 mm; in experiment [6] (setting [11]), 44 mm; in experiment [6] (setting [12]), 53 mm.

With `Cc1ccc(C(C)C)c(OCc2nc(-c3cccc4ccccc34)no2)c1` [Compound 3, 5-((2-isopropyl-5-methylphenoxy)methyl)-3-(naphthalen-1-yl)-1,2,4-oxadiazole], the inhibition zone in experiment [1] (setting [10]) was 18 mm; in [1] (setting [11]), 22 mm; in experiment [1] (setting [12]), 30 mm; in [2] (setting [10]), 28 mm; in [2] (setting [11]), 30 mm; in [2] (setting [12]) it was 39 mm. Further, the inhibition zone in experiment [3] (setting [10]) is recorded as 27 mm; in experiment [3] (setting [11]), 29 mm; in experiment [3] (setting [12]), 46 mm; in [4] (setting [10]), 29 mm; in [4] (setting [11]) it was 32 mm; in experiment [4] (setting [12]), 51 mm. For the same molecule, the inhibition zone came to 24 mm in experiment [5] (setting [10]); 28 mm in experiment [5] (setting [11]); 37 mm in [5] (setting [12]); 14 mm in experiment [6] (setting [10]); 21 mm in experiment [6] (setting [11]); 24 mm in experiment [6] (setting [12]). Also, the antiproliferative activity result in experiment [7] and in experiment [8] was “excellent antiproliferative activities” each time. In addition, the antimicrobial activity result in [9] is reported as “excellent antimicrobial activities”.
